Experimental data reported in paper PMC11471635, “Linkage of alternative exon assembly in Drosophila TrpA1 transcripts” (Molecules and Cells, 2024).

Tests used:
Test in all cases: two-electrode voltage clamp, Xenopus oocytes
Type in all cases: cell-based
humTRPA1 = target: T1, humTRPA1 (Homo sapiens, UniProt O75762)
T1 construct: gene TRPA1; human TRPA1; cRNA-injected Xenopus laevis oocytes (electrophysiology as for insect TRPA1s)

[1] = target: T2, TRPA1(A) (TRPA1(A)-exon10a) (Drosophila melanogaster, UniProt Q7Z020)
T2 construct: full-length isoform with exon1a-encoded N-terminus and exon10a-encoded BAT domain; cRNA-injected Xenopus laevis oocytes
T2 sequence (Q7Z020 1-1197): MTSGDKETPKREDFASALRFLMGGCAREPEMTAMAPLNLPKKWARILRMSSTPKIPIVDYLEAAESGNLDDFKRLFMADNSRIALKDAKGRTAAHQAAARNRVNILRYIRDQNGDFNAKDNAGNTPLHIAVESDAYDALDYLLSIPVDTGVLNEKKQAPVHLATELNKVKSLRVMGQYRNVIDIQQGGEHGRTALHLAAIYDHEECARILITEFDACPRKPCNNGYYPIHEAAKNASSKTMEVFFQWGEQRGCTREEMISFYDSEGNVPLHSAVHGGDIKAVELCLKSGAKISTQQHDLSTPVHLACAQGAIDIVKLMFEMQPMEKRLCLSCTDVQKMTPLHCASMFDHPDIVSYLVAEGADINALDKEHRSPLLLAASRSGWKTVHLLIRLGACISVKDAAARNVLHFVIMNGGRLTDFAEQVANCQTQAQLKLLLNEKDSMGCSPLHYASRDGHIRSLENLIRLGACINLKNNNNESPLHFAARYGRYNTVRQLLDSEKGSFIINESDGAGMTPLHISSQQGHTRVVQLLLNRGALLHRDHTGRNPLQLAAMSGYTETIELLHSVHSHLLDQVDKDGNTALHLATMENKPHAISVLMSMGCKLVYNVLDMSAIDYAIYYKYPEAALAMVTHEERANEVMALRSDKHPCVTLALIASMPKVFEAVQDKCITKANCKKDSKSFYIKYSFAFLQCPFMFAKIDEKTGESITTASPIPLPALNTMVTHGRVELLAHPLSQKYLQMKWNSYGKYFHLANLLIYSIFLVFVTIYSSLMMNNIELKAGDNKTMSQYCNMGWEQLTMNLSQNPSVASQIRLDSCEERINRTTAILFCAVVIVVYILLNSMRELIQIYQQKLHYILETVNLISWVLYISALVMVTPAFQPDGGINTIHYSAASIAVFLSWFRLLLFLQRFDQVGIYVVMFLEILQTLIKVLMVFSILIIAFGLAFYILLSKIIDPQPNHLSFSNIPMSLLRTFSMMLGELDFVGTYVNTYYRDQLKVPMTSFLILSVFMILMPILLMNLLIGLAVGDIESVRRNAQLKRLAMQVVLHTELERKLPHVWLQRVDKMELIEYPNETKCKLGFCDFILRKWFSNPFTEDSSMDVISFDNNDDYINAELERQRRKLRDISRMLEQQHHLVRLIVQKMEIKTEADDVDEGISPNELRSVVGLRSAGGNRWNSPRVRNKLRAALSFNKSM

agTRPA1(B) = target: T3, agTRPA1(B) (Anopheles gambiae, UniProt B3G3I7)
T3 construct: isoform with TRPA1(B)-type N-terminus and exon6a-encoded BAT; cRNA-injected Xenopus laevis oocytes
T3 sequence (B3G3I7 1-1248): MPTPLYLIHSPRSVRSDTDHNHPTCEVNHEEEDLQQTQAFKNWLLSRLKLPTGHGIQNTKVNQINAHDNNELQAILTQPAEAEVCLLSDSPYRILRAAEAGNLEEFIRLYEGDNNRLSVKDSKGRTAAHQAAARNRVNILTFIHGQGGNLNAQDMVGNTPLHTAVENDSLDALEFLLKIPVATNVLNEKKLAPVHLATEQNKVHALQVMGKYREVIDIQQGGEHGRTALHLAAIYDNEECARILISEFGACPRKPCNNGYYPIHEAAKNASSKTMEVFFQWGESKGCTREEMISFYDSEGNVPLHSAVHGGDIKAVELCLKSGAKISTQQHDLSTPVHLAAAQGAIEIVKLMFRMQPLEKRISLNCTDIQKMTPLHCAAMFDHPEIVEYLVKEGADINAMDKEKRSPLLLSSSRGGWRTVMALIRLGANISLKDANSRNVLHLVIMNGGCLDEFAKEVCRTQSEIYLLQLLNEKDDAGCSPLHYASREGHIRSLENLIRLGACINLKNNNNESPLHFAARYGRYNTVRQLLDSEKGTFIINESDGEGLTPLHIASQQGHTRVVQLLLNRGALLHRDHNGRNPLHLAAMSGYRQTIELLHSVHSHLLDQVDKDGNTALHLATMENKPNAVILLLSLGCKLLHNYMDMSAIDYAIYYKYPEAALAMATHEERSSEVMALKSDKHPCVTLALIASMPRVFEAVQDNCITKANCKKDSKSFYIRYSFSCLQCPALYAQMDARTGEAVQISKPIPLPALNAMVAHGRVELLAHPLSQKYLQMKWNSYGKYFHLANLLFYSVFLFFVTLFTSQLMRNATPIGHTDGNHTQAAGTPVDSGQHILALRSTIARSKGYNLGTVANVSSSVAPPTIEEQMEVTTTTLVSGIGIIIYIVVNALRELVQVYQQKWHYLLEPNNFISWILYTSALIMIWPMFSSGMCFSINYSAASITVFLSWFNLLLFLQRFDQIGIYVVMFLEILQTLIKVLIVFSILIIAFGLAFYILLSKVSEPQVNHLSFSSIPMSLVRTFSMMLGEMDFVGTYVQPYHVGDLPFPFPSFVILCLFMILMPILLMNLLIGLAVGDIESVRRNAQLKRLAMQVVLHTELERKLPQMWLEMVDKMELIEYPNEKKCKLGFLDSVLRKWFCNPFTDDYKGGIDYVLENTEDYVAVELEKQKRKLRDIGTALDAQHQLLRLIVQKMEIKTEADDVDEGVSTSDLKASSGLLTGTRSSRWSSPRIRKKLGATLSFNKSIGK

agTRPA1(A) = target: T4, agTRPA1(A) (Anopheles gambiae, UniProt A0A1S4GN50)
T4 construct: isoform with TRPA1(A)-type N-terminus and exon6a-encoded BAT; cRNA-injected Xenopus laevis oocytes
T4 sequence (A0A1S4GN50 1-1208): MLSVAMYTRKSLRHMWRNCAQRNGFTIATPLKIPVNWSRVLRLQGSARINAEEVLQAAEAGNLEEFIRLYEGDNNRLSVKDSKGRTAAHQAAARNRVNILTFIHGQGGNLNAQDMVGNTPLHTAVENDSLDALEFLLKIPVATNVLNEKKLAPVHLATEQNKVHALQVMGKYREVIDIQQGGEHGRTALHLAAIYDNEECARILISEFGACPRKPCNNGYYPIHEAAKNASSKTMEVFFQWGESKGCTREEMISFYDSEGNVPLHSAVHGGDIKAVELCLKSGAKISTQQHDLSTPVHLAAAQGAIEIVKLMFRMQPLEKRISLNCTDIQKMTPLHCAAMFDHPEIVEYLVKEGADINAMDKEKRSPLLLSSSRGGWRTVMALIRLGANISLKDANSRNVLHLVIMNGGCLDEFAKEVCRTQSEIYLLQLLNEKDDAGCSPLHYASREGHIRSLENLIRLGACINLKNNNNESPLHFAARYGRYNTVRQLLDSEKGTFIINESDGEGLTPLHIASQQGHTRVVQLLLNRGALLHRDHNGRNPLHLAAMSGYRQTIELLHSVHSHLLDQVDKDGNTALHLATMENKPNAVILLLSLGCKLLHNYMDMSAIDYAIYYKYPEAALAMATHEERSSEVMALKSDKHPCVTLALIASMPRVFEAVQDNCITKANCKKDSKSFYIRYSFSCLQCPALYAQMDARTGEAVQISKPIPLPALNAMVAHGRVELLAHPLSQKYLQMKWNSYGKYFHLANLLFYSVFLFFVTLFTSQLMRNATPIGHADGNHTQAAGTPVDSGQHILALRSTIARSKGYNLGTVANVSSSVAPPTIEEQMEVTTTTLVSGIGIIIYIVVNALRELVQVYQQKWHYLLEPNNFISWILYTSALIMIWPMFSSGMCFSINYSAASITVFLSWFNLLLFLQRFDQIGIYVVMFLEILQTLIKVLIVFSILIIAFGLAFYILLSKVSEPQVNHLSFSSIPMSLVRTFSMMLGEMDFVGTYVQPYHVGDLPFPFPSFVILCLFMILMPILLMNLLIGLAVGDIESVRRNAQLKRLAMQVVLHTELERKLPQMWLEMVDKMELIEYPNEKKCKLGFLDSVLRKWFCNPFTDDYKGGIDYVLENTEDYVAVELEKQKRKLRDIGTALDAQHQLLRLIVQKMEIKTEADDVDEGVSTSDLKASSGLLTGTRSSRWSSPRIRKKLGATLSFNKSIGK

T1 sequence (O75762 whole entry): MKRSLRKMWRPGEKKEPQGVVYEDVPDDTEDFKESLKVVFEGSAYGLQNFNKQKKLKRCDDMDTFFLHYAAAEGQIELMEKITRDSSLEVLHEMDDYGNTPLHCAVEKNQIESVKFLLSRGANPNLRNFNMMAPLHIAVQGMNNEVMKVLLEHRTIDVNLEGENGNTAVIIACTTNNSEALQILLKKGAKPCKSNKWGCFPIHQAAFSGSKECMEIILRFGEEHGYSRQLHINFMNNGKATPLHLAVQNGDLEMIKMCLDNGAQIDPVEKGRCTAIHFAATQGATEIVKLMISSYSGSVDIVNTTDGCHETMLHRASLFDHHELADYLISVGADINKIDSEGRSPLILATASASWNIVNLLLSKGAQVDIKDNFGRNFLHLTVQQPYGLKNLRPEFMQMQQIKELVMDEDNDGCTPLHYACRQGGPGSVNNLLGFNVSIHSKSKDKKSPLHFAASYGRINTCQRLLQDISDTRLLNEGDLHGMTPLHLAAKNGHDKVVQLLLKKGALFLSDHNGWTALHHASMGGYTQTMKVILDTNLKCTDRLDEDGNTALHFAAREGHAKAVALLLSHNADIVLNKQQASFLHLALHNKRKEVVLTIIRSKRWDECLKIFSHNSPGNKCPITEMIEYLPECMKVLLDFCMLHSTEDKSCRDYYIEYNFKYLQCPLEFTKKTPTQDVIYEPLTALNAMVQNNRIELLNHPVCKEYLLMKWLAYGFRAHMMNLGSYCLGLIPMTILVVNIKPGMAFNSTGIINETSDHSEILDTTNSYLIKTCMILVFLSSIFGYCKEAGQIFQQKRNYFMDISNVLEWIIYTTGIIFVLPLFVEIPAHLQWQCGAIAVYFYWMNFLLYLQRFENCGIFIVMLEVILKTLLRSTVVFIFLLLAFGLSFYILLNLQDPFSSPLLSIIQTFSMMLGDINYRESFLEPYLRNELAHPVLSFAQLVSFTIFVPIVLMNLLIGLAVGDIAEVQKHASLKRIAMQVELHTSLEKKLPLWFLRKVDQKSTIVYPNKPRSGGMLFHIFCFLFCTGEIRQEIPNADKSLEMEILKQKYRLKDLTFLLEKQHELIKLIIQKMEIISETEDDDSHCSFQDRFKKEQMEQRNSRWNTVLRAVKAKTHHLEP

SMILES: CN1C(=O)C=CC1=O [N-methyl maleimide]
- EC50 (humTRPA1): 5.1 ± 0.5 µM
- EC50 [1]: 13.6 ± 0.6 µM
- EC50 (agTRPA1(B)): 39.5 ± 1.1 µM
- EC50 (agTRPA1(A)): 43.8 ± 3.9 µM
